According to PubChem BioAssay AID248 (DTP/NCI, 2004):
Values joined by “and” are separate entries in the source; they are usually repeats but may differ in a detail not shown here. Identical values can stand only once. Inconclusive results and toxic doses are left out.

Test system: L1210 leukemia ip in BDF1 mice, survival T/C
Assay: NCI In Vivo Anticancer Drug Screen. Data for tumor model L1210 Leukemia (intraperitoneal) in B6D2F1 (BDF1) mice
Details: endpoint: mean survival time, higher = longer survival
How it was run: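 In this screen, tumor-bearing mice given compound are compared to those given vehicle, and their survival values are reported as a treated-to-control quotient.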

[1] = dose: 50.0 mg/kg/injection, schedule: Q01DX009 (ip), vehicle: saline with Tween-80
[2] = dose: 100.0 mg/kg/injection, schedule: Q04DX003 (ip), vehicle: saline
[3] = dose: 100.0 mg/kg/injection, schedule: Q01DX009 (ip), vehicle: saline with Tween-80
[4] = dose: 200.0 mg/kg/injection, schedule: Q01DX009 (ip), vehicle: saline with Tween-80
[5] = dose: 400.0 mg/kg/injection, schedule: Q01DX009 (ip), vehicle: saline with Tween-80
[6] = dose: 100.0 mg/kg/injection, schedule: Q04DX003 (ip), vehicle: saline with Tween-80
[7] = dose: 200.0 mg/kg/injection, schedule: Q04DX003 (ip), vehicle: saline with Tween-80
[8] = dose: 400.0 mg/kg/injection, schedule: Q04DX003 (ip), vehicle: saline with Tween-80
[9] = dose: 100.0 mg/kg/injection, schedule: Q01DX001 (ip), vehicle: saline
[10] = dose: 200.0 mg/kg/injection, schedule: Q01DX001 (ip), vehicle: saline
[11] = dose: 400.0 mg/kg/injection, schedule: Q01DX001 (ip), vehicle: saline

With COc1ccc2c3c(c4cc(OC)c(OC)cc4c2c1)C[C@H]1CCCCN1C3 the T/C (dose: 0.06 mg/kg/injection, schedule: Q01DX Z (ip), vehicle: carboxymethylcellulose (CMC)) was 103 % of control, the T/C (dose: 0.12 mg/kg/injection, schedule: Q01DX Z (ip), vehicle: carboxymethylcellulose (CMC)) was 108 % of control and the T/C (dose: 0.25 mg/kg/injection, schedule: Q01DX Z (ip), vehicle: carboxymethylcellulose (CMC)) was 105 % of control. The T/C (dose: 0.25 mg/kg/injection, schedule: Q01DX Z (ip), vehicle: other) was 116 % of control, the T/C (dose: 0.5 mg/kg/injection, schedule: Q01DX Z (ip), vehicle: carboxymethylcellulose (CMC)) was 114 % of control and 124 % of control and the T/C (dose: 0.5 mg/kg/injection, schedule: Q01DX Z (ip), vehicle: other) was 123 % of control. For the same compound, the T/C (dose: 0.5 mg/kg/injection, schedule: Q01DX Z (ip), vehicle: saline) was 115 % of control, the T/C (dose: 1.0 mg/kg/injection, schedule: Q01DX001 (ip), vehicle: saline) was 105 % of control and the T/C (dose: 1.0 mg/kg/injection, schedule: Q01DX Z (ip), vehicle: carboxymethylcellulose (CMC)) was 122 % of control. The T/C (dose: 1.0 mg/kg/injection, schedule: Q01DX Z (ip), vehicle: saline) was 115 % of control, the T/C (dose: 2.0 mg/kg/injection, schedule: Q01DX001 (ip), vehicle: saline) was 105 % of control and the T/C (dose: 2.0 mg/kg/injection, schedule: Q01DX Z (ip), vehicle: other) was 88 % of control. The T/C (dose: 4.0 mg/kg/injection, schedule: Q01DX001 (ip), vehicle: saline) was 111 % of control.

O=C1CCSC(=O)N1SC(Cl)(Cl)Cl was tested, and the T/C (dose: 6.0 mg/kg/injection, schedule: Q04DX003 (ip), vehicle: saline with Tween-80) was 88 % of control, the T/C (dose: 12.0 mg/kg/injection, schedule: Q01DX009 (ip), vehicle: saline with Tween-80) was 94 % of control and the T/C (dose: 12.0 mg/kg/injection, schedule: Q04DX003 (ip), vehicle: saline with Tween-80) was 101 % of control. The T/C (dose: 25.0 mg/kg/injection, schedule: Q01DX009 (ip), vehicle: saline with Tween-80) was 92 % of control, the T/C (dose: 25.0 mg/kg/injection, schedule: Q04DX003 (ip), vehicle: saline with Tween-80) was 97 % of control and 101 % of control and the T/C [1] was 93 % of control and 90 % of control. The T/C [2] was 98 % of control and the T/C (dose: 200.0 mg/kg/injection, schedule: Q04DX003 (ip), vehicle: saline) was 93 % of control.

COc1cccc(CBr)c1-c1c(CBr)cccc1OC was tested, and the T/C (dose: 100.0 mg/kg/injection, schedule: Q04DX002 (ip), vehicle: Klucel (hydroxypropylcellulose) (HPC)) was 94 % of control, the T/C (dose: 200.0 mg/kg/injection, schedule: Q04DX002 (ip), vehicle: Klucel (hydroxypropylcellulose) (HPC)) was 110 % of control and the T/C (dose: 400.0 mg/kg/injection, schedule: Q04DX002 (ip), vehicle: Klucel (hydroxypropylcellulose) (HPC)) was 94 % of control.

CCCCOC(=O)C1OC1(CC)c1ccccc1 (stereo not given) was tested, and the T/C (dose: 100.0 mg/kg/injection, schedule: Q04DX002 (ip), vehicle: saline with Tween-80) was 88 % of control, the T/C (dose: 200.0 mg/kg/injection, schedule: Q04DX002 (ip), vehicle: saline with Tween-80) was 97 % of control and the T/C (dose: 400.0 mg/kg/injection, schedule: Q04DX002 (ip), vehicle: saline with Tween-80) was 100 % of control.

Nc1nc(=O)n(C2OC(CO)C(O)C2O)c2nc(I)[nH]c12 (stereo not given) was tested, and the T/C (dose: 50.0 mg/kg/injection, schedule: Q01DX005 (ip), vehicle: saline) was 100 % of control and the T/C (dose: 100.0 mg/kg/injection, schedule: Q01DX005 (ip), vehicle: saline) was 107 % of control.

With CC(C)(CO)NC(=O)CC1CCCCC1 the T/C [3] was 96 % of control, the T/C [4] was 97 % of control and the T/C [5] was 97 % of control.

In the case of CC([NH-])c1ccccc1.[Cl][Pt]([Cl])[Cl] (stereo not given), the T/C (dose: 100.0 mg/kg/injection, schedule: Q01DX009 (ip), vehicle: saline) is reported as 97 % of control, the T/C (dose: 200.0 mg/kg/injection, schedule: Q01DX009 (ip), vehicle: saline) is reported as 92 % of control and the T/C (dose: 400.0 mg/kg/injection, schedule: Q01DX009 (ip), vehicle: saline) is reported as 87 % of control.

With NC(=O)N(CCCCN(N=O)C(N)=O)N=O the T/C (dose: 40.0 mg/kg/injection, schedule: Q01DX001 (ip), vehicle: saline with Tween-80) was 152 % of control, the T/C (dose: 60.0 mg/kg/injection, schedule: Q01DX001 (ip), vehicle: saline with Tween-80) was 178 % of control and the T/C (dose: 93.0 mg/kg/injection, schedule: Q01DX001 (ip), vehicle: saline with Tween-80) was 246 % of control. For the same compound, the T/C (dose: 500.0 mg/kg/injection, schedule: Q01DX001 (ip), vehicle: saline with Tween-80) was 90 % of control.

In the case of Cc1ccc(NC(=O)N(C)N)cc1, the T/C (dose: 75.0 mg/kg/injection, schedule: Q01DX001 (ip), vehicle: carboxymethylcellulose (CMC)) is reported as 102 % of control and the T/C (dose: 150.0 mg/kg/injection, schedule: Q01DX001 (ip), vehicle: carboxymethylcellulose (CMC)) is reported as 104 % of control.

c1ccc2c(c1)CCN(CCCCN1CCc3ccccc3C1)C2 was tested, and the T/C (dose: 25.0 mg/kg/injection, schedule: Q04DX003 (ip), vehicle: saline) was 100 % of control, the T/C (dose: 50.0 mg/kg/injection, schedule: Q04DX003 (ip), vehicle: saline) was 102 % of control and the T/C [2] was 96 % of control and 97 % of control.

S=P(NC1CCCCC1)(N1CC1)N1CC1 was tested, and the T/C (dose: 5.0 mg/kg/injection, schedule: Q01DX Z (ip), vehicle: carboxymethylcellulose (CMC)) was 122 % of control and the T/C (dose: 20.0 mg/kg/injection, schedule: Q01DX Z (ip), vehicle: carboxymethylcellulose (CMC)) was 101 % of control.

With NC(=O)c1ccccc1NC(=O)Nc1ccc([N+](=O)[O-])cc1Cl the T/C [3] was 98 % of control, the T/C [6] was 95 % of control and the T/C [4] was 102 % of control. For the same compound, the T/C [7] was 96 % of control, the T/C [5] was 98 % of control and the T/C [8] was 95 % of control.

CC(=O)c1ccc(NC(=O)c2ccc(C(=O)Nc3ccc(C(C)=O)cc3)cc2)cc1 was tested, and the T/C [9] was 100 % of control, the T/C [10] was 96 % of control and the T/C [11] was 102 % of control.

O=C(N/N=C/c1cc(Cl)ccc1O)c1cccc2ccccc12 was tested, and the T/C [9] was 94 % of control, the T/C [10] was 92 % of control and the T/C [11] was 86 % of control.

O=[N+]([O-])c1ccc(N=Nc2ccc(O)cc2)cc1 was tested, and the T/C (dose: 55.0 mg/kg/injection, schedule: Q01DX Z (ip), vehicle: methylcellulose (MC)) was 103 % of control, the T/C (dose: 83.0 mg/kg/injection, schedule: Q01DX Z (ip), vehicle: methylcellulose (MC)) was 117 % of control and the T/C [6] was 98 % of control. For the same compound, the T/C (dose: 125.0 mg/kg/injection, schedule: Q01DX Z (ip), vehicle: methylcellulose (MC)) was 103 % of control, the T/C [7] was 91 % of control and the T/C [8] was 98 % of control.

In the case of O=C(O)/C=C/c1ccc(O)cc1, the T/C (dose: 75.0 mg/kg/injection, schedule: Q04DX003 (ip), vehicle: Klucel (hydroxypropylcellulose) (HPC)) is reported as 97 % of control, the T/C (dose: 150.0 mg/kg/injection, schedule: Q04DX003 (ip), vehicle: Klucel (hydroxypropylcellulose) (HPC)) is reported as 101 % of control and the T/C (dose: 300.0 mg/kg/injection, schedule: Q04DX003 (ip), vehicle: Klucel (hydroxypropylcellulose) (HPC)) is reported as 109 % of control.

With COCCOCCOc1ccc(Cl)cc1 the T/C (dose: 100.0 mg/kg/injection, schedule: Q04DX002 (ip), vehicle: saline) was 92 % of control, the T/C (dose: 200.0 mg/kg/injection, schedule: Q04DX002 (ip), vehicle: saline) was 107 % of control and the T/C (dose: 400.0 mg/kg/injection, schedule: Q04DX002 (ip), vehicle: saline) was 88 % of control.

In the case of COc1ccc(/C=C/C(=O)c2ccc(OCc3ccccc3)c(OC)c2)cc1OC, the T/C [1] is reported as 105 % of control, the T/C [3] is reported as 104 % of control and the T/C [4] is reported as 98 % of control. The T/C [5] was 90 % of control and the T/C (dose: 500.0 mg/kg/injection, schedule: Q01DX009 (ip), vehicle: saline with Tween-80) was 102 % of control.
